From PMC12717099, “Peptidoglycan recruitment by a penicillin binding protein” (Nature Communications, 2025)

Legend:
PBP5 (PBP5_37-678) = assay: NMR chemical shift perturbation titration (2D [1H,15N] TROSY, 2D [1H,13C] ILV methyl HMQC) of stem peptides / PG into PBP5; format: binding, Enterococcus faecium; details: peptides up to 1:80 PBP5:SP (SP3 1:1000); PG 1:0.25-1:5
Description: Data was processed using Topspin 4.1.4 (Bruker) and analyzed using NMRFAM-SPARKY 1.3 and Poky (build number 20240829)[20],[21]. The sequence-specific backbone assignment of PBP5 is publicly available at BMRBID 51690.
SPs (SP1 to SP7) were titrated into 0.5 mM (^2H,^15N)-labeled and 0.1 mM (^2H,^15N)/^13C ILV labeled PBP5 at molar ratios of 0:1, 5:1, 10:1, 20:1, 40:1, 60:1, and 80:1 (stem peptide/SP:PBP5; molar ratios). 2D [^1H,^15N] TROSY or 2D [^1H,^13C] HMQC spectra were recorded for each titration point. SPs were solubilized in NMR buffer. Chemical shift perturbations (Δδ) between PBP5 and SP bound PBP5 spectra were calculated using Eq. 1,1 Δδppm=ΔδH^2+ΔδX/Y^2 where, X is ^15N or ^13C and Y is the constant i.e., 10 for ^15N and 4 for ^13C.
Residues with significant CSPs were identified by calculating the standard deviation of all CSPs (σ), then excluding any CSPs larger than average+2σ, recalculating σ as a new corrected σ0, and then repetitively removing CSPs above 2σ0 until no additional CSPs can be removed. CSPs above ≥2σ2 was the statistical threshold for ^1H/^15N backbone CSP analysis and ≥2xσ1 for ^1H/^13C methyl ILV data for the interaction of SP1 with PBP5. The same threshold values were used for all other peptides to allow for direct comparison with the SP1/PBP5 interaction. The identical significance analysis was also performed for PenG/ceftaroline saturated PBP5 (1:8 molar ratio of PBP5 to β-lactam antibiotics was used to ensure saturation of an extended time period needed for the SP titrations) SP interaction studies; CSPs above ≥2σ3 was the statistical threshold for ^1H/^15N backbone CSP analysis and ≥2xσ2 for ^1H/^13C methyl ILV data to identify all residues with a statistically significant change in its chemical shift upon SP interaction.
Residue specific KD values were calculated by using Eq. 2[23],2 CSPobs=CSPmax/2PP+S+KD−P+S+KD^2−4[S][P] where P and S are the concentration of PBP5 and SP1, respectively. CSPobs is the experimentally observed chemical shift value and CSPmax is the largest experimentally observed chemical shift value of the residue. […] The lack of saturation was due to the limited amount of available SP peptide due to their difficult synthesis. Residues used for KD calculation were common residues with statistically significant CSPs in the interaction studies of SP1 and SP2 with PBP5 at a 1:80 ratio.

PBP5 = assay: 1D 1H STD NMR of stem peptides with PBP5; format: binding, Enterococcus faecium; details: for STD % to SP1: normalised to highest SP1:PBP5 value; for STD amplification factor: protein:peptide 1:100, 2 s saturation, 308 K
Source text: Total saturation time for STD measurements was 2 s.
Overlapped peaks were completely excluded from the analysis.

D-Ala-D-Ala [SP3]
interaction with PBP5 by CSPs, in words (PBP5 (PBP5_37-678)): no CSPs were observed

D-Lac-L-Ala-D-iGln-Gly-D-Ala-D-Ala [SP4, SP with L-Lys(D-iAsn) replaced by Gly]
interaction with PBP5 by CSPs, in words (PBP5 (PBP5_37-678)): interacts with PBP5 very poorly
STD amplification factor as fraction of highest SP1:PBP5 value (PBP5; 1H DA4β, DLacβ): 0.2081
STD % to SP1 (PBP5; 1H DA4β, DLacβ): 20.809%
STD amplification factor (PBP5; 1H DA4β, DLacβ): 5.599
STD amplification factor as fraction of highest SP1:PBP5 value (PBP5; 1H DA5α): 0.5864
STD % to SP1 (PBP5; 1H DA5α): 58.6405%
STD amplification factor (PBP5; 1H DA5α): 15.7792
STD amplification factor as fraction of highest SP1:PBP5 value (PBP5; 1H DA5β): 0.2717
STD % to SP1 (PBP5; 1H DA5β): 27.1666%
STD amplification factor (PBP5; 1H DA5β): 7.3101
STD amplification factor as fraction of highest SP1:PBP5 value (PBP5; 1H DQ2α,Dlacα,DA4α,LA1α): 0.3132
STD % to SP1 (PBP5; 1H DQ2α,Dlacα,DA4α,LA1α): 31.3217%
STD amplification factor (PBP5; 1H DQ2α,Dlacα,DA4α,LA1α): 8.428
STD amplification factor as fraction of highest SP1:PBP5 value (PBP5; 1H DQ2β (first listed)): 0.6761
STD % to SP1 (PBP5; 1H DQ2β (first listed)): 67.6099%
STD amplification factor (PBP5; 1H DQ2β (first listed)): 18.1927
STD amplification factor as fraction of highest SP1:PBP5 value (PBP5; 1H DQ2β (second listed)): 0.8081
STD % to SP1 (PBP5; 1H DQ2β (second listed)): 80.8137%
STD amplification factor (PBP5; 1H DQ2β (second listed)): 21.7457
STD amplification factor as fraction of highest SP1:PBP5 value (PBP5; 1H DQ2γ): 0.2977
STD % to SP1 (PBP5; 1H DQ2γ): 29.7735%
STD amplification factor (PBP5; 1H DQ2γ): 8.012
STD amplification factor as fraction of highest SP1:PBP5 value (PBP5; 1H G3α): 0.19
STD % to SP1 (PBP5; 1H G3α): 19.0039%
STD amplification factor (PBP5; 1H G3α): 5.114
STD amplification factor as fraction of highest SP1:PBP5 value (PBP5; 1H LA1β): 0.2515
STD % to SP1 (PBP5; 1H LA1β): 25.1468%
STD amplification factor (PBP5; 1H LA1β): 6.767

D-Lac-L-Ala-D-iGln-L-Lys-D-Ala-D-Ala [SP5]
interaction with PBP5 by CSPs, in words (PBP5 (PBP5_37-678)): weaker interaction
STD amplification factor as fraction of highest SP1:PBP5 value (PBP5; 1H D5α): 0.4969
STD % to SP1 (PBP5; 1H D5α): 49.685%
STD amplification factor (PBP5; 1H D5α): 13.3694
STD amplification factor as fraction of highest SP1:PBP5 value (PBP5; 1H DA4α,LA1α): 0.2481
STD % to SP1 (PBP5; 1H DA4α,LA1α): 24.8062%
STD amplification factor (PBP5; 1H DA4α,LA1α): 6.675
STD amplification factor as fraction of highest SP1:PBP5 value (PBP5; 1H DA4β, DLacβ): 0.2031
STD % to SP1 (PBP5; 1H DA4β, DLacβ): 20.3132%
STD amplification factor (PBP5; 1H DA4β, DLacβ): 5.466
STD amplification factor as fraction of highest SP1:PBP5 value (PBP5; 1H DA5β): 0.283
STD % to SP1 (PBP5; 1H DA5β): 28.3024%
STD amplification factor (PBP5; 1H DA5β): 7.616
STD amplification factor as fraction of highest SP1:PBP5 value (PBP5; 1H DQ2α,Dlacα): 0.2004
STD % to SP1 (PBP5; 1H DQ2α,Dlacα): 20.0424%
STD amplification factor (PBP5; 1H DQ2α,Dlacα): 5.393
STD amplification factor as fraction of highest SP1:PBP5 value (PBP5; 1H DQ2β (first listed)): 0.5843
STD % to SP1 (PBP5; 1H DQ2β (first listed)): 58.4308%
STD amplification factor (PBP5; 1H DQ2β (first listed)): 15.7228
STD amplification factor as fraction of highest SP1:PBP5 value (PBP5; 1H DQ2β (second listed)): 0.7133
STD % to SP1 (PBP5; 1H DQ2β (second listed)): 71.3266%
STD amplification factor (PBP5; 1H DQ2β (second listed)): 19.1928
STD amplification factor as fraction of highest SP1:PBP5 value (PBP5; 1H DQ2γ): 0.2744
STD % to SP1 (PBP5; 1H DQ2γ): 27.4437%
STD amplification factor (PBP5; 1H DQ2γ): 7.385
STD amplification factor as fraction of highest SP1:PBP5 value (PBP5; 1H K3α): 0.381
STD % to SP1 (PBP5; 1H K3α): 38.104%
STD amplification factor (PBP5; 1H K3α): 10.2532
STD amplification factor as fraction of highest SP1:PBP5 value (PBP5; 1H K3β): 0.5122
STD % to SP1 (PBP5; 1H K3β): 51.2163%
STD amplification factor (PBP5; 1H K3β): 13.7815
STD amplification factor as fraction of highest SP1:PBP5 value (PBP5; 1H K3δ): 0.5418
STD % to SP1 (PBP5; 1H K3δ): 54.1786%
STD amplification factor (PBP5; 1H K3δ): 14.5786
STD amplification factor as fraction of highest SP1:PBP5 value (PBP5; 1H K3ε): 0.2671
STD % to SP1 (PBP5; 1H K3ε): 26.7058%
STD amplification factor (PBP5; 1H K3ε): 7.186
STD amplification factor as fraction of highest SP1:PBP5 value (PBP5; 1H LA1β): 0.2119
STD % to SP1 (PBP5; 1H LA1β): 21.1895%
STD amplification factor (PBP5; 1H LA1β): 5.702

D-Lac-L-Ala-D-nGln-L-Lys(D-iAsn)-D-Ala-D-Ala [SP6]
interaction with PBP5 by CSPs, in words (PBP5 (PBP5_37-678)): more akin to that of SP1 than SP4
STD amplification factor as fraction of highest SP1:PBP5 value (PBP5; 1H DA4α,LA1α,DQ2α): 0.3043
STD % to SP1 (PBP5; 1H DA4α,LA1α,DQ2α): 30.434%
STD amplification factor (PBP5; 1H DA4α,LA1α,DQ2α): 8.1893
STD amplification factor as fraction of highest SP1:PBP5 value (PBP5; 1H DA4β, DLacβ): 0.3219
STD % to SP1 (PBP5; 1H DA4β, DLacβ): 32.1881%
STD amplification factor (PBP5; 1H DA4β, DLacβ): 8.661
STD amplification factor as fraction of highest SP1:PBP5 value (PBP5; 1H DA5α): 0.8446
STD % to SP1 (PBP5; 1H DA5α): 84.4584%
STD amplification factor (PBP5; 1H DA5α): 22.7264
STD amplification factor as fraction of highest SP1:PBP5 value (PBP5; 1H DA5β): 0.4039
STD % to SP1 (PBP5; 1H DA5β): 40.3917%
STD amplification factor (PBP5; 1H DA5β): 10.8688
STD amplification factor as fraction of highest SP1:PBP5 value (PBP5; 1H DQ2β (first listed)): 0.9448
STD % to SP1 (PBP5; 1H DQ2β (first listed)): 94.4801%
STD amplification factor (PBP5; 1H DQ2β (first listed)): 25.4231
STD amplification factor as fraction of highest SP1:PBP5 value (PBP5; 1H DQ2β (second listed)): 1.053
STD % to SP1 (PBP5; 1H DQ2β (second listed)): 105.321%
STD amplification factor (PBP5; 1H DQ2β (second listed)): 28.3401
STD amplification factor as fraction of highest SP1:PBP5 value (PBP5; 1H DQ2γ): 0.4867
STD % to SP1 (PBP5; 1H DQ2γ): 48.6725%
STD amplification factor (PBP5; 1H DQ2γ): 13.097
STD amplification factor as fraction of highest SP1:PBP5 value (PBP5; 1H K3β): 0.991
STD % to SP1 (PBP5; 1H K3β): 99.098%
STD amplification factor (PBP5; 1H K3β): 26.6657
STD amplification factor as fraction of highest SP1:PBP5 value (PBP5; 1H K3δ): 0.802
STD % to SP1 (PBP5; 1H K3δ): 80.2012%
STD amplification factor (PBP5; 1H K3δ): 21.5809
STD amplification factor as fraction of highest SP1:PBP5 value (PBP5; 1H LA1β): 0.4375
STD % to SP1 (PBP5; 1H LA1β): 43.7522%
STD amplification factor (PBP5; 1H LA1β): 11.773
STD amplification factor as fraction of highest SP1:PBP5 value (PBP5; 1H iNα ,Dlacα,K3α): 0.4025
STD % to SP1 (PBP5; 1H iNα ,Dlacα,K3α): 40.2497%
STD amplification factor (PBP5; 1H iNα ,Dlacα,K3α): 10.8306
STD amplification factor as fraction of highest SP1:PBP5 value (PBP5; 1H iNβ): 0.4322
STD % to SP1 (PBP5; 1H iNβ): 43.2239%
STD amplification factor (PBP5; 1H iNβ): 11.6309
